Measured values: patent US20100298141A1, “SUBSTITUTED PYRIDINE N-OXIDE HERBICIDES” (E. I. DU PONT DE NEMOURS AND COMPANY, priority 2007, published 2010)

Legend:
barnyardgrass = test: Test A pre-/postemergence greenhouse test; type: in vivo, Echinochloa crus-galli; conditions: for Plant response rating, Barnyardgrass: 0 to 100 scale where 0 is no effect and 100 is complete control; for Barnyardgrass plant response rating: 0 to 100 scale
How it was run: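 Greenhouse herbicide screen, pre- and postemergence in parallel. Soil: loam plus sand. Formulation: non-phytotoxic solvent mix with surfactant. Postemergence stage: one to two leaves, 2–10 cm height. Evaluation: visual injury, compared with untreated controls, about 10 days after treatment.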

cocklebur = test: Test C pre-/postemergence test; type: in vivo, Xanthium strumarium
Description: (§1) Seeds of plant species selected from blackgrass (Alopecurus myosuroides), downy brome (Bromus tectorum), green foxtail (Setaria viridis), Italian ryegrass (Lolium multiflorum), wheat (Triticum aestivum), wild oat (Avena fatua), catchweed bedstraw (Galium aparine), Russian thistle (Salsola kali), […] (Cynodon dactylon), Surinam grass (Brachiaria decumbens), cocklebur (Xanthium strumarium), corn (Zea mays), crabgrass (Digitaria sanguinalis), woolly cupgrass (Eriochloa villosa), giant foxtail (Setaria faberii), Goosegrass (Eleusin indica), johnsongrass (Sorghum halepense), kochia (Kochia scoparia), lambsquarters (Chenopodium album), morningglory (Ipomoea coccinea), eastern black nightshade (Solanum ptycanthum), yellow nutsedge (Cyperus esculentus), pigweed (Amaranthus retroflexus), common ragweed (Ambrosia elation), soybean (Glycine max), common (oilseed) sunflower (Helianthus annuus), and velvetleaf (Abutilon theophrasti) were planted and treated preemergence with test chemicals formulated in a non-phytotoxic solvent mixture which included a surfactant. At the same time, plants selected from these crop and weed species and also winter barley (Hordeum vulgare), canarygrass (Phalaris minor), and chickweed (Stellaria media) were treated with postemergence applications of some of the test chemicals formulated in the same manner. Plants ranged in height from 2 to 18 cm (1- to 4-leaf stage) for postemergence treatments. […] At time of treatment, test pots were flooded to 3 cm above the soil surface, treated by application of test compounds directly to the paddy water, and then maintained at that water depth for the duration of the test. […] A dash (-) response means no test result.

kochia = test: Test C pre-/postemergence test; type: in vivo, Kochia scoparia
Description: as §1

velvetleaf = test: Test C pre-/postemergence test; type: in vivo, Abutilon theophrasti
Description: as §1

[1] = Postemergence, 500 g ai/ha, 0 is no effect, 100 is complete control
[2] = Preemergence, 125 g ai/ha, 0 no effect, 100 complete control
[3] = 62 g ai/ha, Preemergence, scale 0 to 100
[4] = 125 g ai/ha, preemergence, scale 0 (no effect) to 100 (complete control)
[5] = Preemergence, 31 g ai/ha, scale 0 to 100 (0 no effect, 100 complete control)
[6] = preemergence, 250 g ai/ha, scale 0 (no effect) to 100 (complete control)
[7] = Postemergence, 125 g ai/ha, 0 is no effect, 100 is complete control
[8] = 31 g ai/ha, Preemergence, scale 0 to 100
[9] = 62 g ai/ha, preemergence, scale 0 (no effect) to 100 (complete control)
[10] = preemergence, 125 g ai/ha, scale 0 (no effect) to 100 (complete control)
[11] = Preemergence, 500 g ai/ha, 0 no effect, 100 complete control
[12] = Postemergence, 62 g ai/ha, scale 0 to 100, 0 no effect, 100 complete control
[13] = Postemergence, 125 g ai/ha, scale 0 to 100, 0 no effect, 100 complete control
[14] = Postemergence, 250 g ai/ha, scale 0 to 100, 0 no effect, 100 complete control

Structure (SMILES) | Plant response rating, Barnyardgrass (barnyardgrass; Postemergence, 125 g ai/ha) | Barnyardgrass plant response rating (barnyardgrass; [1]) | Barnyardgrass plant response rating (barnyardgrass; [2]) | Plant response rating, Barnyardgrass (barnyardgrass; Preemergence, 500 g ai/ha) | Cocklebur plant response rating (cocklebur; [3]) | Cocklebur plant response rating (cocklebur; [4]) | Plant response rating, Cocklebur (cocklebur; [5]) | Cocklebur plant response rating (cocklebur; [6]) | Kochia plant response rating (kochia; [3]) | Kochia plant response rating (kochia; [4]) | Plant response rating, Kochia (kochia; [5]) | Kochia plant response rating (kochia; [6]) | Velvetleaf plant response rating (velvetleaf; [3]) | Velvetleaf plant response rating (velvetleaf; [4]) | Plant response rating, Velvetleaf (velvetleaf; [5]) | Velvetleaf plant response rating (velvetleaf; [6]) | Barnyardgrass plant response rating (barnyardgrass; [7]) | further results
CC(c1c(C(F)(F)F)nn(CC(F)(F)F)c1Cl)[S+]([O-])c1cccc[n+]1[O-] (centres unmarked) [Compound 46] | 70 | 80 | 80 | 100 | 0 | 0 | 0 | 10 | 50 | 100 | 50 | 100 | 0 | 0 | 0 | 60 |  | 
Cn1nc(C(F)(F)F)c(C(Cl)S(=O)(=O)c2cccc[n+]2[O-])c1OCC(F)(F)F (racemic) [Compound 36] |  | 80 | 100 | 100 | 0 | 0 | 0 | 0 |  | 20 | 0 | 100 | 0 | 40 | 0 | 70 | 40 | 
CC(c1c(C(F)(F)F)nn(C)c1Cl)S(=O)(=O)c1cccc[n+]1[O-] (centres unmarked) [Compound 10] |  | 90 | 100 | 100 |  |  |  |  |  |  |  |  |  |  |  |  | 80 | Cocklebur plant response rating (cocklebur; [8]): 0; Cocklebur plant response rating (cocklebur; [9]): 0; Plant response rating (0 to 100), Cocklebur (cocklebur; Preemergence, 250 g ai/ha): 0; Cocklebur plant response rating (cocklebur; [10]): 0; Kochia plant response rating (kochia; [8]): 0; Kochia plant response rating (kochia; [9]): 40; Plant response rating (0 to 100), Kochia (kochia; Preemergence, 250 g ai/ha): 100; Kochia plant response rating (kochia; [10]): 80; Velvetleaf plant response rating (velvetleaf; [9]): 0; Plant response rating (0 to 100), Velvetleaf (velvetleaf; Preemergence, 250 g ai/ha): 75; Velvetleaf plant response rating (velvetleaf; [10]): 5
Cc1cc[n+]([O-])c(S(=O)(=O)Cc2c(C(F)(F)C(F)(F)F)nn(C)c2OCC(F)(F)F)c1 [Compound 99] | 60 | 80 | 70 |  | 0 | 0 | 0 | 30 | 100 | 100 | 100 | 100 | 80 | 100 | 0 | 100 |  | Barnyardgrass plant response rating (barnyardgrass; [11]): 100
CCn1nc(C(F)(F)F)c(C(C)S(=O)(=O)c2cccc[n+]2[O-])c1OCC(F)(F)F (centres unmarked) [Compound 69] | 80 | 90 | 60 | 100 |  |  |  |  |  |  |  |  |  |  |  |  |  | Plant response rating (0 to 100), Cocklebur (cocklebur; Postemergence, 31 g ai/ha): 0; Plant response rating, Cocklebur (cocklebur; [12]): 0; Plant response rating, Cocklebur (cocklebur; [13]): 0; Plant response rating, Cocklebur (cocklebur; [14]): 0; Plant response rating (0 to 100), Kochia (kochia; Postemergence, 31 g ai/ha): 0; Plant response rating, Kochia (kochia; [12]): 0; Plant response rating, Kochia (kochia; [13]): 0; Plant response rating, Kochia (kochia; [14]): 0; Plant response rating (0 to 100), Velvetleaf (velvetleaf; Postemergence, 31 g ai/ha): 0; Plant response rating (0 to 100), Velvetleaf (velvetleaf; Postemergence, 62 g ai/ha): 0; Plant response rating, Velvetleaf (velvetleaf; [13]): 0; Plant response rating, Velvetleaf (velvetleaf; [14]): 0
CCc1cc[n+]([O-])c([S+]([O-])Cc2c(C(F)(F)F)nn(C)c2OC(F)F)c1 (centres unmarked) [Compound 101] | 80 | 90 | 90 |  | 0 | 10 | 0 | 15 | 30 | 85 | 0 | 100 | 30 | 40 | 0 | 95 |  | Barnyardgrass plant response rating (barnyardgrass; [11]): 100
Cn1nc(C(F)(F)F)c(C[S+]([O-])c2cc(Cl)cc[n+]2[O-])c1Cl (racemic) [Compound 39] |  | 90 | 90 | 100 | 0 | 0 | 0 | 0 | 0 | 60 | 0 | 100 | 45 | 60 | 30 | 100 | 70 | 
Cn1nc(C(F)(F)F)c(C[S+]([O-])c2cc(F)cc[n+]2[O-])c1Cl (racemic) [Compound 42] |  | 80 | 80 | 100 | 0 | 0 | 0 | 50 | 100 | 100 | 100 | 100 | 60 | 70 | 0 | 100 | 70 | 
CCn1nc(C(F)(F)F)c(C[S+]([O-])c2cccc[n+]2[O-])c1OCC(F)(F)F (racemic) [Compound 65] | 90 | 90 | 80 | 100 | 0 |  |  | 90 | 100 | 100 | 100 | 100 | 60 | 100 | 55 | 100 |  | Plant response rating (0 to 100), Cocklebur (cocklebur; Postemergence, 31 g ai/ha): 0; Plant response rating, Cocklebur (cocklebur; [12]): 0; Plant response rating, Cocklebur (cocklebur; [13]): 0; Plant response rating, Cocklebur (cocklebur; [14]): 0; Plant response rating (0 to 100), Kochia (kochia; Postemergence, 31 g ai/ha): 0; Plant response rating, Kochia (kochia; [12]): 0; Plant response rating, Kochia (kochia; [13]): 0; Plant response rating, Kochia (kochia; [14]): 0; Plant response rating (0 to 100), Velvetleaf (velvetleaf; Postemergence, 31 g ai/ha): 0; Plant response rating (0 to 100), Velvetleaf (velvetleaf; Postemergence, 62 g ai/ha): 0; Plant response rating, Velvetleaf (velvetleaf; [13]): 30; Plant response rating, Velvetleaf (velvetleaf; [14]): 40
Cn1nc(C(F)(F)F)c(C[S+]([O-])c2cc(C(F)(F)F)cc[n+]2[O-])c1Cl (racemic) [Compound 34] |  | 60 | 80 | 100 | 0 |  | 0 |  | 0 |  | 0 |  | 70 |  | 40 |  | 40 | Plant response rating (0 to 100), Cocklebur (cocklebur; Preemergence, 250 g ai/ha): 30; Cocklebur plant response rating (cocklebur; [10]): 0
